Source: patent EP4603105A1, “PHARMACEUTICAL COMPOSITION CONTAINING CYCLIC COMPOUND HAVING SELECTIVE KRAS INHIBITORY EFFECT AGAINST HRAS AND NRAS” (CHUGAI SEIYAKU KABUSHIKI KAISHA, priority 2022, dated 2024)
Read-outs that look alike come from different tables or passages of the source.

Tests used:
[1] = system: human lung cancer strain NCI-H441; assay: NCI-H441 cell proliferation inhibitory activity (CellTiter-Glo, 4 days); assay type: cell-based; details: read-out: NCl-H441 IC50
Method in brief: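 Step one: dispense the test compound in serial DMSO dilutions. Step three: add the reagent and measure […].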

[2] = biological target: GDP-bound NRAS wild-type protein (Homo sapiens, UniProt P01111); assay: Binding to NRAS by surface plasmon resonance (SPR), KD and KD ratio to KRAS
Sequence of GDP-bound NRAS wild-type protein (P01111 whole entry): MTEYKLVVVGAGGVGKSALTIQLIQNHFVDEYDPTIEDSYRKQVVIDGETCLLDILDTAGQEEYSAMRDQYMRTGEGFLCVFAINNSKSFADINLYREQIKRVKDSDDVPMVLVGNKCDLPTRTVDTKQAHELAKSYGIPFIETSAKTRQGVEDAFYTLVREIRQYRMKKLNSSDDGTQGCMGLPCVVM
Method in brief: (§1)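 Captured GDP-RAS (~100–300 RU) was exposed to increasing compound concentrations, 75 s per step, in running buffer with 10 µM GDP, 10 mM MgCl2 and 4% DMSO at pH 7.4.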

HRAS wild-type protein = HRAS wild-type protein (Homo sapiens, UniProt P01112); assay: Binding to HRAS by surface plasmon resonance (SPR), KD and KD ratio to KRAS
Sequence of HRAS wild-type protein (P01112 whole entry): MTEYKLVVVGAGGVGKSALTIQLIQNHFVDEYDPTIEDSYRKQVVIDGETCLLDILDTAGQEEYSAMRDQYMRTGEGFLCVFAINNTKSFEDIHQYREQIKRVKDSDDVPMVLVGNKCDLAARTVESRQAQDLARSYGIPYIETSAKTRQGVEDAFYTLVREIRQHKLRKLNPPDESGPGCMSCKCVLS
Method in brief: as §1

[3] = biological target: GDP-bound KRAS wild-type protein (Homo sapiens, UniProt P01116); assay: Binding to KRAS by surface plasmon resonance (SPR), dissociation constant KD
Sequence of GDP-bound KRAS wild-type protein (P01116 1-188 isoform P01116-2): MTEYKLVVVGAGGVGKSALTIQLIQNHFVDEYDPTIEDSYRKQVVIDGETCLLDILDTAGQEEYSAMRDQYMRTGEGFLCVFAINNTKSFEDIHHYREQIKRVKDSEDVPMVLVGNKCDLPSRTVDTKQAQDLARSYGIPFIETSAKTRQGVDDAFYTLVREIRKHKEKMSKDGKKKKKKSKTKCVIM
Method in brief: as §1

[4] = ratio of KD for GDP-bound NRAS wild-type protein to KD for KRAS
[5] = ratio of KD for HRAS wild-type protein to KD for KRAS
[6] = 50% proliferation inhibitory concentration, four days
[7] = ratio of KD with respect to GDP-bound NRAS wild-type protein to KD with respect to KRAS
[8] = ratio of KD with respect to HRAS wild-type protein to KD with respect to KRAS
[9] = Single Cycle Kinetics, 1:1 binding model

## CCO[C@@H]1C[C@H]2C(=O)OC3(CCC3)C(=O)N(C)[C@@H](C3CCCC3)C(=O)N(C)[C@H](C(=O)N(C)C)CC(=O)N(C)[C@@H](CC(C)C)C(=O)N[C@@H]([C@@H](C)CC)C(=O)N(C)CC(=O)N(C)[C@H]3C/C=C\CCN(C3=O)[C@@H](Cc3ccc(C)cc3)C(=O)N(C)CC(=O)N[C@@H](CCc3ccc(C(F)(F)F)c(OC)c3)C(=O)N2C1 [PP3382]
[1]; NCI-H441 cells, 4 days
  IC50: 5.2 nM
[2]; [4]
  NRAS /KRAS: A (a compound having 10 or more and less than 20 is denoted as A)
HRAS wild-type protein; [5]
  HRAS /KRAS: B (a compound having 3 or more and less than 10 is denoted as B)
[3]; Single Cycle Kinetics
  Kd: 0.2 nM

## CCO[C@@H]1C[C@H]2C(=O)NC3(CCC3)C(=O)N(C)[C@@H](C3CCCC3)C(=O)N(C)[C@H](C(=O)N3CCOCC3)CC(=O)N(C)[C@@H](CC(F)F)C(=O)N[C@@H]([C@@H](C)CC)C(=O)N(C)CC(=O)N(C)[C@H]3C/C=C\CCN(C3=O)[C@@H](Cc3ccc(C(F)(F)F)cc3)C(=O)N(C)CC(=O)N[C@@H](CCc3cc(F)c(C(F)(F)F)c(F)c3)C(=O)N2C1 [PP1285]
[1]; [6]
  IC50: 24.6 nM
[2]; [7]
  NRAS /KRAS: AA (a compound having 20 or more is denoted as AA)
HRAS wild-type protein; [8]
  HRAS /KRAS: A (a compound having 10 or more and less than 20 is denoted as A)
[3]; [9]
  Kd: 0.15 nM

## CCO[C@@H]1C[C@H]2C(=O)NC3(CCCC3)C(=O)N(C)[C@@H](C3CCCC3)C(=O)N(C)[C@H](C(=O)N3CCOCC3)CC(=O)N(C)[C@@H](CC)C(=O)N[C@@H]([C@@H](C)CC)C(=O)N(C)CC(=O)N(C)[C@H]3C[C@H](C)C(C)CN(C3=O)[C@@H](Cc3ccc(C(F)(F)F)cc3)C(=O)N(C)CC(=O)N[C@@H](CCc3cc(F)c(C(F)(F)F)c(F)c3)C(=O)N2C1 (stereo partly drawn) [PP1348]
[1]; [6]
  IC50: 8.7 nM
[2]; [7]
  NRAS /KRAS: B (a compound having 3 or more and less than 10 is denoted as B)
HRAS wild-type protein; [8]
  HRAS /KRAS: B (a compound having 3 or more and less than 10 is denoted as B)
[3]; [9]
  Kd: 0.076 nM

## CCO[C@@H]1C[C@H]2C(=O)NC3(CC(C)(C)C3)C(=O)N(C)[C@@H](C(CC)CC)C(=O)N(C)[C@H](C(=O)N(C)C)CC(=O)N(C)[C@@H](C(C)C)C(=O)N[C@@H]([C@@H](C)CC)C(=O)N(C)CC(=O)N(C)[C@H]3C/C=C\CCN(C3=O)[C@@H](CC3CCC(F)(F)CC3)C(=O)N(C)CC(=O)N[C@@H](CCc3cc(F)c(C(F)(F)F)c(F)c3)C(=O)N2C1 [PP2481]
[1]; NCI-H441 cells, 4 days
  IC50: 33.6 nM
[2]; [4]
  NRAS /KRAS: A (a compound having 10 or more and less than 20 is denoted as A)
HRAS wild-type protein; [5]
  HRAS /KRAS: A (a compound having 10 or more and less than 20 is denoted as A)
[3]; 1:1 binding model
  Kd: 1.6 nM

## CC[C@H](C)[C@@H]1NC(=O)[C@H](CC)N(C)C(=O)C[C@@H](C(=O)N(C)C)N(C)C(=O)[C@H](C2CCCC2)N(C)C(=O)C2(CCC2)NC(=O)CN(CC)C(=O)[C@H](CCc2cc(F)c(C(F)(F)F)c(F)c2)NC(=O)CN(C)C(=O)[C@H](Cc2ccc(C(F)(F)F)cc2)N2CC/C=C\C[C@@H](C2=O)N(C)C(=O)CN(C)C1=O [PP1143]
[1]; [6]
  IC50: 75.3 nM
[2]; [7]
  NRAS /KRAS: A (a compound having 10 or more and less than 20 is denoted as A)
HRAS wild-type protein; [8]
  HRAS /KRAS: A (a compound having 10 or more and less than 20 is denoted as A)
[3]; [9]
  Kd: 0.17 nM

## CCC[C@H]1C(=O)N[C@@H]([C@@H](C)CC)C(=O)N2CC[C@H]2C(=O)N(C)[C@H]2C/C(F)=C\CCN(C2=O)[C@@H](Cc2ccc(C)cc2)C(=O)N(C)CC(=O)N[C@@H](CCc2ccc(C(F)(F)F)c(OC)c2)C(=O)N2C[C@H](OCC)C[C@H]2C(=O)N(C)C2(CCC2)C(=O)N(C)[C@@H](C2CCCC2)C(=O)N(C)[C@H](C(=O)N(C)C)CC(=O)N1C [PP3530]
[1]; NCI-H441 cells, 4 days
  IC50: 6.8 nM
[2]; [4]
  NRAS /KRAS: B (a compound having 3 or more and less than 10 is denoted as B)
HRAS wild-type protein; [5]
  HRAS /KRAS: B (a compound having 3 or more and less than 10 is denoted as B)
[3]; Single Cycle Kinetics
  Kd: 0.14 nM

## CCO[C@@H]1C[C@H]2C(=O)NC3(CCC3)C(=O)N(C)[C@@H](C3CCCC3)C(=O)N(C)[C@H](C)CC(=O)N(C)[C@@H](CC3CCCC3)C(=O)N[C@@H]([C@@H](C)CC)C(=O)N(C)CC(=O)N(C)[C@H]3C/C=C\CCN(C3=O)[C@@H](Cc3ccc(C)cc3)C(=O)N(C)CC(=O)N[C@@H](CCc3cc(F)c(C(F)(F)F)c(F)c3)C(=O)N2C1 [PP1413]
[1]; [6]
  IC50: 62.5 nM
[2]; [7]
  NRAS /KRAS: B (a compound having 3 or more and less than 10 is denoted as B)
HRAS wild-type protein; [8]
  HRAS /KRAS: B (a compound having 3 or more and less than 10 is denoted as B)
[3]; [9]
  Kd: 0.42 nM

## CCOC[C@H]1C(=O)N[C@@H]([C@@H](C)CC)C(=O)N(C)CC(=O)N(C)[C@H]2C/C=C\CCN(C2=O)[C@@H](Cc2ccc(C)cc2)C(=O)N(C)CC(=O)N[C@@H](CCc2cc(F)c(C(F)(F)F)c(F)c2)C(=O)N2C[C@@H](C)C[C@H]2C(=O)NC2(CC(C)(C)C2)C(=O)N(C)[C@@H](C2CCCC2)C(=O)N(C)[C@H](C(=O)N(CC)CC)CC(=O)N1C [PP2407]
[1]; NCI-H441 cells, 4 days
  IC50: 60.1 nM
[2]; [4]
  NRAS /KRAS: A (a compound having 10 or more and less than 20 is denoted as A)
HRAS wild-type protein; [5]
  HRAS /KRAS: A (a compound having 10 or more and less than 20 is denoted as A)
[3]; 1:1 binding model
  Kd: 0.5 nM

## CCC[C@H]1C(=O)N[C@@H](C2CCCC2)C(=O)N(C)CC(=O)N(C)[C@H]2C/C=C\CCN(C2=O)[C@@H](Cc2ccc(C)cc2)C(=O)N(C)CC(=O)N[C@@H](CCc2ccc(C(F)(F)F)c(OC)c2)C(=O)N2CC3(CC3)C[C@H]2C(=O)N(C)C2(CCC2)C(=O)N(C)[C@@H](CC(C)(C)C)C(=O)N(C)[C@H](C(=O)N(C)C)CC(=O)N1C [PP3320]
[1]; NCI-H441 cells, 4 days
  IC50: 4.6 nM
[2]; [4]
  NRAS /KRAS: B (a compound having 3 or more and less than 10 is denoted as B)
HRAS wild-type protein; [5]
  HRAS /KRAS: B (a compound having 3 or more and less than 10 is denoted as B)
[3]; Single Cycle Kinetics
  Kd: 0.037 nM

## CCO[C@@H]1C[C@H]2C(=O)NC3(CCCC3)C(=O)N(C)[C@@H](C3CCCC3)C(=O)N(C)[C@H](C(=O)N(C)C)CC(=O)N(C)[C@@H](CC)C(=O)N[C@@H]([C@@H](C)CC)C(=O)N(C)CC(=O)N(C)[C@H]3C[C@H](C)C(C)CN(C3=O)[C@@H](Cc3ccc(C(F)(F)F)cc3)C(=O)N(C)CC(=O)N[C@@H](CCc3cc(F)c(C(F)(F)F)c(F)c3)C(=O)N2C1 (stereo partly drawn) [PP1347]
[1]; [6]
  IC50: 3.6 nM
[2]; [7]
  NRAS /KRAS: B (a compound having 3 or more and less than 10 is denoted as B)
HRAS wild-type protein; [8]
  HRAS /KRAS: B (a compound having 3 or more and less than 10 is denoted as B)
[3]; [9]
  Kd: 0.017 nM

## CCC[C@H]1C(=O)N[C@@H]([C@@H](C)CC)C(=O)N(C2CC2)CC(=O)N(C)[C@H]2C/C=C\CCN(C2=O)[C@@H](Cc2ccc(C)cc2)C(=O)N(C)CC(=O)N[C@@H](CCc2ccc(Cl)c(Cl)c2)C(=O)N2C[C@H](OC(C)C)C[C@H]2C(=O)NC2(CC(C)(C)C2)C(=O)N(C)[C@@H](C2CCCC2)C(=O)N(C)[C@H](C(=O)N(C)C)CC(=O)N1C [PP2571]
[1]; NCI-H441 cells, 4 days
  IC50: 76.1 nM
[2]; [4]
  NRAS /KRAS: A (a compound having 10 or more and less than 20 is denoted as A)
HRAS wild-type protein; [5]
  HRAS /KRAS: A (a compound having 10 or more and less than 20 is denoted as A)
[3]; 1:1 binding model
  Kd: 1 nM

## CCCOC[C@H]1C(=O)N[C@@H]([C@@H](C)CC)C(=O)N(C)CC(=O)N(C)[C@H]2C/C=C\CCN(C2=O)[C@@H](Cc2ccc(C)cc2)C(=O)N(C)CC(=O)N[C@@H](CCc2ccc(C(F)(F)F)c(Cl)c2)C(=O)N2C[C@@H](C)C[C@H]2C(=O)NC2(CC(C)(C)C2)C(=O)N(C)[C@@H](C2CCCC2)C(=O)N(C)[C@H](C(=O)N(C)C)CC(=O)N1C [PP2453]
[1]; NCI-H441 cells, 4 days
  IC50: 9.2 nM
[2]; [4]
  NRAS /KRAS: A (a compound having 10 or more and less than 20 is denoted as A)
HRAS wild-type protein; [5]
  HRAS /KRAS: A (a compound having 10 or more and less than 20 is denoted as A)
[3]; 1:1 binding model
  Kd: 0.09 nM

## CCC[C@H]1C(=O)N[C@@H]([C@@H](C)CC)C(=O)N(C)CC(=O)N(C)[C@H]2C/C=C\CCN(C2=O)[C@@H](Cc2ccc(C)cc2)C(=O)N(C)CC(=O)N[C@@H](CCc2ccc(C(F)(F)F)c(Cl)c2)C(=O)N2CC3(CC3)C[C@H]2C(=O)N(C)C2(CCC2)C(=O)N(C)[C@@H]([C@@H](C)CC)C(=O)N(C)[C@H](C(=O)N(C)C)CC(=O)N1C [PP3302]
[1]; NCI-H441 cells, 4 days
  IC50: 9 nM
[2]; [4]
  NRAS /KRAS: A (a compound having 10 or more and less than 20 is denoted as A)
HRAS wild-type protein; [5]
  HRAS /KRAS: A (a compound having 10 or more and less than 20 is denoted as A)
[3]; Single Cycle Kinetics
  Kd: 0.081 nM

## CCC[C@H]1C(=O)N[C@@H]([C@@H](C)CC)C(=O)N(C2CC2)CC(=O)N(C)[C@H]2C/C=C\CCN(C2=O)[C@@H](CC2CCC(F)(F)CC2)C(=O)N(C)CC(=O)N[C@@H](CCc2ccc(Cl)c(Cl)c2)C(=O)N2C[C@H](OCC)C[C@H]2C(=O)NC2(CC(C)(C)C2)C(=O)N(C)[C@@H](C2CCCC2)C(=O)N(C)[C@H](C(=O)N(C)C)CC(=O)N1C [PP2567]
[1]; NCI-H441 cells, 4 days
  IC50: 102 nM
[2]; [4]
  NRAS /KRAS: A (a compound having 10 or more and less than 20 is denoted as A)
HRAS wild-type protein; [5]
  HRAS /KRAS: A (a compound having 10 or more and less than 20 is denoted as A)
[3]; 1:1 binding model
  Kd: 1.9 nM

## C#CCN1CC(=O)N(C)[C@H]2C/C=C\CCN(C2=O)[C@@H](Cc2ccc(C)cc2)C(=O)N(C)CC(=O)N[C@@H](CCc2ccc(C(F)(F)F)c(OC)c2)C(=O)N2C[C@H](OCC)C[C@H]2C(=O)NC2(CC(C)(C)C2)C(=O)N(C)[C@@H](C2CCCC2)C(=O)N(C)[C@H](C(=O)N(C)C)CC(=O)N(C)[C@@H](CCC)C(=O)N[C@@H](CC(C)C)C1=O [PP2514]
[1]; NCI-H441 cells, 4 days
  IC50: 86.8 nM
[2]; [4]
  NRAS /KRAS: A (a compound having 10 or more and less than 20 is denoted as A)
HRAS wild-type protein; [5]
  HRAS /KRAS: B (a compound having 3 or more and less than 10 is denoted as B)
[3]; 1:1 binding model
  Kd: 2.4 nM
